# Results: patent publication US20060148730A1, “Method of treating tuberculosis” (priority 2003, published 2006)
# Tested on: M. tuberculosis H37Rv
# Assay: MIC vs. M. tuberculosis H37Rv, microplate Alamar Blue assay (MABA)
# Assay type: cell-based
# Conditions: Mycobacterium tuberculosis, H37RV, Table 4; read-out: MIC
row,SMILES,MIC [µM]
1,CC[C@H]1OC(=O)[C@H](C)C(O[C@H]2CC(C)(OC)[C@@H](OC(=O)Nc3ccccc3)[C@H](C)O2)[C@H](C)[C@@H](O[C@@H]2O[C@H](C)C[C@H](N(C)C)[C@H]2O)[C@](C)(OC)C[C@@H](C)C(=O)[C@H](C)[C@@H](O)[C@]1(C)O (stereo partly shown) [Compound 1SH63],16
2,CC[C@H]1OC(=O)[C@H](C)[C@@H](OC2CC(C)(OC)C(OC(=O)c3ccccc3)C(C)O2)[C@H](C)[C@@H](OC2OC(C)CC(N(C)C)C2OC(=O)c2ccccc2)[C@](C)(OC)C[C@@H](C)C(=O)[C@H](C)[C@H]2N(NCCCc3ccnc4ccccc34)C(=O)O[C@]12C (stereo partly shown) [Compound 1SH53b],11

# Same assay, conditions: Table 1a, 11,12-carbamate derivatives; anti-TB activity; read-out: MIC
row,SMILES,MIC [µM]
1,CC[C@H]1OC(=O)[C@@](C)(F)C(=O)[C@H](C)[C@@H](O[C@@H]2O[C@H](C)C[C@H](N(C)C)[C@H]2O)[C@](C)(OCC#Cc2cc(-c3cnc4ccccc4c3)no2)C[C@@H](C)C(=O)[C@H](C)[C@H]2NC(=O)O[C@@]21C [Compound A323348],0.38
2,CC[C@H]1OC(=O)[C@H](C)C(=O)[C@H](C)[C@@H](O[C@@H]2O[C@H](C)C[C@H](N(C)C)[C@H]2O)[C@](C)(OC)C[C@@H](C)C(=O)[C@H](C)[C@H]2N(NCCc3ccccc3)C(=O)O[C@]12C [RU70645],14
3,CCC1OC(=O)C(C)(F)C(=O)C(C)C(OC2OC(C)CC(N(C)C)C2O)C(C)(OC)CC(C)C(=O)C(C)C2N(NCCCc3ccnc4ccccc34)C(=O)OC12C (stereo not shown) [RU3562],16
4,CC[C@H]1OC(=O)[C@H](C)[C@@H](O[C@H]2CC(C)(OC)[C@@H](O)[C@H](C)O2)[C@H](C)[C@@H](O[C@@H]2O[C@H](C)C[C@H](N(C)C)[C@H]2O)[C@](C)(OC)C[C@@H](C)C(=O)[C@H](C)[C@H]2N(CCCCc3ccnc4ccccc34)C(=O)O[C@]12C (stereo partly shown) [RU66080],0.44

# Same assay, conditions: Table 2a, 11,12-diols; anti-TB activity; read-out: MIC
row,SMILES,MIC [µM]
1,CC[C@H]1OC(=O)[C@H](C)C(=O)[C@H](C)[C@@H](O[C@@H]2O[C@H](C)C[C@H](N(C)C)[C@H]2O)[C@](C)(OC)C[C@@H](C)C(=NOCOCCOC)[C@H](C)[C@@H](O)[C@]1(C)O [RU54615],>128
2,CC[C@H]1OC(=O)[C@H](C)C(=O)[C@H](C)[C@@H](O[C@@H]2O[C@H](C)C[C@H](N(C)C)[C@H]2O)[C@](C)(OC)C[C@@H](C)C(=NOC2CCCN(C/C=C/c3ccc(-c4ccccc4)cc3)C2)[C@H](C)[C@@H](O)[C@]1(C)O (stereo partly shown) [RU61804],0.5
3,CC[C@H]1OC(=O)[C@H](C)C(=O)[C@H](C)[C@@H](O[C@@H]2O[C@H](C)C[C@H](N(C)C)[C@H]2O)[C@](C)(OC)C[C@@H](C)C(=O)[C@H](C)[C@@H](O)[C@]1(C)O [RU56006],>128

# Same assay, conditions: Table 3; parallel-synthesis carbazate library products, SPE purified; read-out: MIC
row,SMILES,MIC [µM]
1,CC[C@H]1OC(=O)[C@H](C)[C@@H](O[C@H]2CC(C)(OC)[C@@H](O)[C@H](C)O2)[C@H](C)[C@@H](O[C@@H]2O[C@H](C)C[C@H](N(C)C)[C@H]2O)[C@](C)(OC)C[C@@H](C)C(=O)[C@H](C)[C@H]2N(NCc3cccc4nsnc34)C(=O)O[C@]12C (stereo partly shown) [H3′],>22
2,CC[C@H]1OC(=O)[C@H](C)[C@@H](O[C@H]2CC(C)(OC)[C@@H](O)[C@H](C)O2)[C@H](C)[C@@H](O[C@@H]2O[C@H](C)C[C@H](N(C)C)[C@H]2O)[C@](C)(OC)C[C@@H](C)C(=O)[C@H](C)[C@H]2N(NCc3c(Cl)cccc3Cl)C(=O)O[C@]12C (stereo partly shown) [H1′],11
3,CC[C@H]1OC(=O)[C@H](C)[C@@H](O[C@H]2CC(C)(OC)[C@@H](O)[C@H](C)O2)[C@H](C)[C@@H](O[C@@H]2O[C@H](C)C[C@H](N(C)C)[C@H]2O)[C@](C)(OC)C[C@@H](C)C(=O)[C@H](C)[C@H]2N(NCc3c(-c4ccccc4)noc3C)C(=O)O[C@]12C (stereo partly shown) [C10′],12
4,CC[C@H]1OC(=O)[C@H](C)[C@@H](O[C@H]2CC(C)(OC)[C@@H](O)[C@H](C)O2)[C@H](C)[C@@H](O[C@@H]2O[C@H](C)C[C@H](N(C)C)[C@H]2O)[C@](C)(OC)C[C@@H](C)C(=O)[C@H](C)[C@H]2N(NCc3c(C)noc3C)C(=O)O[C@]12C (stereo partly shown) [C6′],>17
5,CC[C@H]1OC(=O)[C@H](C)[C@@H](O[C@H]2CC(C)(OC)[C@@H](O)[C@H](C)O2)[C@H](C)[C@@H](O[C@@H]2O[C@H](C)C[C@H](N(C)C)[C@H]2O)[C@](C)(OC)C[C@@H](C)C(=O)[C@H](C)[C@H]2N(NCc3c(C(F)(F)F)nn(C)c3Cl)C(=O)O[C@]12C (stereo partly shown) [D3′],20
6,CC[C@H]1OC(=O)[C@H](C)[C@@H](O[C@H]2CC(C)(OC)[C@@H](O)[C@H](C)O2)[C@H](C)[C@@H](O[C@@H]2O[C@H](C)C[C@H](N(C)C)[C@H]2O)[C@](C)(OC)C[C@@H](C)C(=O)[C@H](C)[C@H]2N(NC/C=C/c3ccccc3)C(=O)O[C@]12C (stereo partly shown) [A4′],7
7,CC[C@H]1OC(=O)[C@H](C)[C@@H](O[C@H]2CC(C)(OC)[C@@H](O)[C@H](C)O2)[C@H](C)[C@@H](O[C@@H]2O[C@H](C)C[C@H](N(C)C)[C@H]2O)[C@](C)(OC)C[C@@H](C)C(=O)[C@H](C)[C@H]2N(NCCCc3ccccc3)C(=O)O[C@]12C (stereo partly shown) [A2′],10
8,CC[C@H]1OC(=O)[C@H](C)[C@@H](O[C@H]2CC(C)(OC)[C@@H](O)[C@H](C)O2)[C@H](C)[C@@H](O[C@@H]2O[C@H](C)C[C@H](N(C)C)[C@H]2O)[C@](C)(OC)C[C@@H](C)C(=O)[C@H](C)[C@H]2N(NCC3=Cc4ccccc4OC3)C(=O)O[C@]12C (stereo partly shown) [G6′],11
9,CC[C@H]1OC(=O)[C@H](C)[C@@H](O[C@H]2CC(C)(OC)[C@@H](O)[C@H](C)O2)[C@H](C)[C@@H](O[C@@H]2O[C@H](C)C[C@H](N(C)C)[C@H]2O)[C@](C)(OC)C[C@@H](C)C(=O)[C@H](C)[C@H]2N(NCc3cc(Br)cs3)C(=O)O[C@]12C (stereo partly shown) [F11′],12.7
10,CC[C@H]1OC(=O)[C@H](C)[C@@H](O[C@H]2CC(C)(OC)[C@@H](O)[C@H](C)O2)[C@H](C)[C@@H](O[C@@H]2O[C@H](C)C[C@H](N(C)C)[C@H]2O)[C@](C)(OC)C[C@@H](C)C(=O)[C@H](C)[C@H]2N(NCc3c[nH]c(=O)[nH]c3=O)C(=O)O[C@]12C (stereo partly shown) [E8′],>20
11,CC[C@H]1OC(=O)[C@H](C)[C@@H](O[C@H]2CC(C)(OC)[C@@H](O)[C@H](C)O2)[C@H](C)[C@@H](O[C@@H]2O[C@H](C)C[C@H](N(C)C)[C@H]2O)[C@](C)(OC)C[C@@H](C)C(=O)[C@H](C)[C@H]2N(NCc3cnn(-c4ccc(F)cc4)c3C)C(=O)O[C@]12C (stereo partly shown) [D7′],13
12,CC[C@H]1OC(=O)[C@H](C)[C@@H](O[C@H]2CC(C)(OC)[C@@H](O)[C@H](C)O2)[C@H](C)[C@@H](O[C@@H]2O[C@H](C)C[C@H](N(C)C)[C@H]2O)[C@](C)(OC)C[C@@H](C)C(=O)[C@H](C)[C@H]2N(NCc3cn(S(=O)(=O)c4ccc(C)cc4)c4ccccc34)C(=O)O[C@]12C (stereo partly shown) [C4′],11

# Same assay, conditions: Table 4; read-out: MIC
row,SMILES,MIC [µM]
1,CCC1OC(=O)C(C)C(OC2CC(C)(OC)C(O)C(C)O2)C(C)C(OC2OC(C)CC(N(C)C)C2O)C(C)(OC)CC(C)C(=NOC2CCCNC2)C(C)C(O)C1(C)O (stereo not shown) [ITR0009],24
2,CCC1OC(=O)C(C)C(OC2CC(C)(OC)C(O)C(C)O2)C(C)C(OC2OC(C)CC(N(C)C)C2O)C(C)(OC)CC(C)C(=NOCCCCF)C(C)C(O)C1(C)O (stereo not shown) [Compound 1DP79],3.5

# Same assay, conditions: Table 5; read-out: MIC
row,SMILES,MIC [µM]
1,CCC1OC(=O)C(C)C(OC2CC(C)(OC)C(O)C(C)O2)C(C)C(OC2OC(C)CC(N(C)C)C2O)C(C)(O)CC(C)C(=NNCc2ccc(SC)cc2)C(C)C(O)C1(C)O (stereo not shown) [Compound 1OK137],47
2,CCC1OC(=O)C(C)C(OC2CC(C)(OC)C(OC(C)=O)C(C)O2)C(C)C(OC2OC(C)CC(N(C)C)C2OC(C)=O)C(C)(OC)CC(C)C(=O)C(C)C2N(NCCCc3ccnc4ccccc34)C(=O)OC12C (stereo not shown) [ITR0005],7.7
3,CC[C@H]1OC(=O)[C@H](C)[C@@H](O)[C@H](C)[C@@H](O[C@@H]2O[C@H](C)C[C@H](N(C)C)[C@H]2O)[C@](C)(OC)C[C@@H](C)C(=NOCCc2ccccc2)[C@H](C)[C@@H](O)[C@]1(C)O [Compound 2GY7],16
4,CCC1OC(=O)C(C)C(OC2CC(C)(OC)C(O)C(C)O2)C(C)C(OC2OC(C)CC(N(C)C)C2O)C(C)(O)CC(C)C(=NNCc2ccc(C(F)(F)F)cc2)C(C)C(O)C1(C)O (stereo not shown) [Compound 1OK133],25
5,CCC1OC(=O)C(C)C(OC2CC(C)(OC)C(O)C(C)O2)C(C)C(OC2OC(C)CC(N(C)C)C2O)C(C)(O)CC(C)C(=NNC2CCCCC2)C(C)C(O)C1(C)O (stereo not shown) [Compound 1OK107],3.9
6,CCC1OC(=O)C(C)C(O)C(C)C(OC2OC(C)CC(N(C)C)C2O)C(C)(OC)CC(C)C(=NOCCC2CCCCC2)C(C)C(O)C1(C)O (stereo not shown) [Compound 2GY5],3.1
7,CCC1OC(=O)C(C)C(OC2CC(C)(OC)C(O)C(C)O2)C(C)C(OC2OC(C)CC(N(C)C)C2O)C(C)(OC)CC(C)C(=NOC(C)(C)CC(C)=O)C(C)C(O)C1(C)O (stereo not shown) [Compound 1GY27],31
8,CCC1OC(=O)C(C)C(OCc2ccccc2)C(C)C(OC2OC(C)CC([N+](C)(C)Cc3ccccc3)C2OCc2ccccc2)C(C)(OC)CC(C)C(=NOCc2ccccc2)C(C)C(O)C1(C)O (stereo not shown) [Compound 2GY12],6.3
9,CCC1OC(=O)C(C)C(OC2CC(C)(OC)C(O)C(C)O2)C(C)C(OC2OC(C)CC(N(C)C)C2O)C(C)(O)CC(C)C(=NN=Cc2ccc(C(F)(F)F)cc2)C(C)C(O)C1(C)O (stereo not shown) [Compound 1OK95],27
10,CCCCCCNC(=O)OC1C(OC2C(C)C(OC3CC(C)(OC)C(O)C(C)O3)C(C)C(=O)OC(CC)C(C)(O)C(O)C(C)C(=O)C(C)CC2(C)OC)OC(C)CC1N(C)C (stereo not shown) [Compound 1SH88],15

# Same assay, conditions: read-out: minimum inhibitory concentration (MIC) against M. tuberculosis
row,SMILES,MIC [µM]
1,CC[C@H]1OC(=O)[C@@](C)(F)C(=O)[C@H](C)[C@@H](O[C@@H]2O[C@H](C)C[C@H](N(C)C)[C@H]2O)[C@](C)(OCC#Cc2cc(-c3cnc4ccccc4c3)no2)C[C@@H](C)C(=O)[C@H](C)[C@H]2NC(=O)O[C@@]21C [Compound A323348],0.38

# Same assay, conditions: result in words
row,SMILES,anti-TB activity / MIC in words
1,CC[C@H]1OC(=O)[C@@](C)(F)C(=O)[C@H](C)[C@@H](O[C@@H]2O[C@H](C)C[C@H](N(C)C)[C@H]2O)[C@](C)(OCC#Cc2cc(-c3cnc4ccccc4c3)no2)C[C@@H](C)C(=O)[C@H](C)[C@H]2NC(=O)O[C@@]21C [Compound A323348],very low
2,CC[C@H]1OC(=O)[C@H](C)C(=O)[C@H](C)[C@@H](O[C@@H]2O[C@H](C)C[C@H](N(C)C)[C@H]2O)[C@](C)(OC)C[C@@H](C)C(=NOC2CCCN(C/C=C/c3ccc(-c4ccccc4)cc3)C2)[C@H](C)[C@@H](O)[C@]1(C)O (stereo partly shown) [RU61804],most potent of the tested 9-oxime compounds

# Tested on: VERO cells
# Assay: Cytotoxicity against VERO cells (MTS, 72 hours)
# Conditions: result in words
row,SMILES,in vitro toxicity / cytotoxicity in words
1,CC[C@H]1OC(=O)[C@@](C)(F)C(=O)[C@H](C)[C@@H](O[C@@H]2O[C@H](C)C[C@H](N(C)C)[C@H]2O)[C@](C)(OCC#Cc2cc(-c3cnc4ccccc4c3)no2)C[C@@H](C)C(=O)[C@H](C)[C@H]2NC(=O)O[C@@]21C [Compound A323348],comparable to clarithromycin
